In a melting point compilation (Tetko et al.; mined from patent text by program, amines drawn as free bases though some values may be those of a salt):

SMILES	melting point [°C]
C#CCN(Cc1cc2c(=O)n(C)c(CN3CCN(CCO)CC3)nc2cc1Cl)c1ccc(C(=O)NCc2cccnc2)cc1	115 to 117
C=CCC(Cc1ccc(Cl)c(Cl)c1)NC(=O)c1cc(C)cc(C)c1 (stereo not given)	155 to 157
Cc1cc(N2CCC(CN3CCN(S(=O)(=O)c4ccc(Cl)cc4)CC3)CC2)nc(C)n1	73 to 74
CCCCCCCCCCCCOc1ccc(C(=O)c2ccc(Sc3ccccc3)cc2)c(O)c1	59 to 60
O=c1ccn(CCO)c(Cc2ccccc2)c1O	228 to 230
CC(C(N)=O)c1ccc2c(c1)Sc1ccccc1CC2=O (stereo not given)	178 to 179
Cc1cc(-n2ccnc2)c2cccc(OCc3c(Cl)ccc(S(=O)(=O)N4CCC[C@H]4C(=O)NCCN4CCCCC4)c3Cl)c2n1	108
C=CCNc1nc(NC(C)C)c2scc(C)c2n1	106 to 107
CCC(CC)c1ccc(Cl)c2nc3n(c12)CCCCN3c1ccc(OC)nc1OC	85 to 88
CC(=O)SCCN(CCc1ccccc1)C(=O)N[C@@H](Cc1ccc([N+](=O)[O-])cc1)C(=O)NCCC(=O)O	114 to 118
Cc1cc(C)c(C(=O)COc2ccc(C(=O)C(=O)O)cc2)c(C)c1	144 to 145
COc1ccc2cc(C(=O)O)sc(=O)c2c1	291 to 292
Cc1coc(NC(=S)Nc2cc(Cl)ccc2C)n1	207 to 208
Cn1cc(C(=O)O)c(=O)c2cc3cc(F)c(N4CCNC(c5ccco5)C4)cc3nc21 (racemic)	258 to 260
CCn1ncc2c(Cl)c3cc(S(C)(=O)=O)ccc3nc21	158 to 160
COc1ccc(-c2ncccc2O)cc1OC	150 to 155
CC(C)(C)OC(=O)N[C@H](CC(=O)OCc1ccccc1)C(=O)N[C@H](CO)c1ccccc1	117 to 118
Cc1oc(-c2ccccc2)nc1COc1ccc(COc2nn(-c3ccccc3)cc2CO)cc1	118 to 119
CC(=O)Oc1ccc(-c2nn(C3CCCC3)c3c(F)cccc23)cc1	90 to 91
O=c1oc2ccccc2c(=O)n1OS(=O)(=O)C(F)(F)F	74 to 76
CCN(CC)CCNc1ccnc2cc(C(F)(F)F)ccc12	122 to 124
Cc1cc(=O)oc2cccc(OC(=S)N(C)C)c12	166 to 168
O=C(NC1C(=O)N(CC23CC4CC(CC(C4)C2)C3)c2ccccc2N(c2ccccc2)C1=O)Oc1ccccc1 (stereo not given)	205 to 207
N#Cc1cc(-c2ccc(Cl)cc2)c(Br)[nH]1	202 to 204
CC/C(=C\C#CC(O)(C(F)(F)F)C(F)(F)F)c1cccc(CCc2ccc(CO)c(CO)c2)c1	123
Cc1ccc(-c2cc3c(s2)CCCCC3=O)cc1	82 to 84

SMILES	melting point [°C]
CCOC(=O)c1cn2c3c(ccc(C)c3c1=O)CCC2C (stereo not given)	106 to 108
Nc1nc2ccccc2c2c1nc(C1CCOC1)n2CCOc1ccccc1 (stereo not given)	236
O=C1Oc2ccc(Cl)cc2C2=c3ccccc3=NCC12 (stereo not given)	> 350
Cc1cccc2nc3sccn3c(=O)c12	148 to 150
COC(=O)COc1cccc2c(CCBr)coc12	58 to 59
NCCCC(=O)NCCS(=O)(=O)O	247
COCCOc1cccc2c1C(=O)c1ccccc1C2=O	146 to 147
O=C(O)C1OCc2ccccc2O1 (stereo not given)	88
CC(C)CC(NC(=O)OCc1ccccc1)C(=O)NC(C(=O)Nc1n[nH]c(=S)s1)C(C)C (stereo not given)	146
CC(C)c1nccn1Cc1ccc2c(c1)Cc1c(-c3ccsc3)n[nH]c1-2	260 to 262
O=C(NCCCl)Nc1ccc2[nH]ccc2c1	159 to 161
O=S1(=O)c2ccccc2-c2ccc(F)cc21	229 to 233
COc1ccc2c(-c3sccc3C)noc2c1Cl	154 to 156
Fc1ccc(Nc2ncnc3ccc(-c4ccsc4)cc23)cc1Cl	195 to 197
CC1(C)CCC(C)(C)c2cc(C=O)c(Br)cc21	114
CCCCCCCCCCCCCCCCOc1ccc(OCC(=O)NCc2ccccn2)cc1	68 to 69
Cc1c(Nc2c(C#N)cncc2-c2nccs2)ccc2[nH]ccc12	245 to 247
O=C1CCCN1CCc1ccccc1	50.5 to 52.5
Cc1ccccc1-c1nc(N)ncc1-c1ccc(=O)n(C)n1	229
Cc1ccc2c(c1)C(O)(c1ccccn1)CC(C)(C)CO2 (stereo not given)	126
COc1cc(C=CC(=O)CCCCCBr)cc(OC)c1	73 to 76
O=C1N(Cc2ccc(C(F)(F)F)o2)c2cccc(Cl)c2C12COc1cc3c(cc12)CCO3 (stereo not given)	166 to 169
CC(=O)c1ccccc1NC(C(N)=O)c1c(Cl)cccc1Cl (stereo not given)	169
CC(C)(C)c1cc2c(c(C(C)(C)C)c1)OC(=O)C2c1ccc(C(F)(F)F)cc1 (stereo not given)	127 to 128
CCC#CCCOc1ccc(/C=C/C(=O)Nc2ccccc2C(=O)O)cc1OC	165 to 166
CCCCCCCCCCCCCCCCCCCC(C)=O	41 to 42

Now from value to compound:

melting point [°C]	SMILES
169 to 171	CC(=O)N(CCCOc1ccc(C(=O)O)cc1)c1ccc(Cl)cc1
225 to 227	Nc1cc(=O)nc(Nc2ccc(F)cc2)n1-c1ccccc1
190	CN1CCOc2ccc(/C=C/C(=O)O)cc21
116	N#Cc1cccc(C=C2c3ccccc3CCc3ccccc32)c1
88 to 90	O=CNc1cccc(C(=NOC(=O)C(Cl)Cl)C(=O)O)n1
125	O=C(CCCCCS(=O)c1ccc(Cl)cc1)NO (stereo not given)
219 to 222	Oc1noc2ccc(Cl)cc12
76.5 to 78	COc1cc(C(=O)CBr)cc(Cl)c1OC
95 to 96	CCCn1nc(OCc2ccc3ccccc3n2)cc1CO
126 to 128	CCOC(=O)C(=CNc1cn[nH]c1)C(C)=O
245 to 246	CCCCCCCc1ccc(C(=O)Nc2ccc3oc(Nc4ccc(CC)cc4)nc3c2)cc1
115 to 116	O=C(O)C(O)N1C(=O)CCN1c1cccc(F)c1 (stereo not given)
> 320	CCC1CCCCN1CCC(=O)Nc1ccc2c(=O)c3ccc(NC(=O)CCN4CCCCC4CC)cc3[nH]c2c1 (stereo not given)
138 to 140	COc1ccc(OC)c2c1COC(c1ncc(S(=O)(=O)c3ccc(C)cc3)o1)C2 (stereo not given)
> 280	CS(=O)(=O)c1c(C(=O)NN=Cc2ccc(Cl)cc2)[nH]c2ccccc12
86 to 90	c1ccc(CC[C@H]2CN(Cc3ccccc3)CCN2Cc2ccccc2)cc1
169 to 170	Cc1c(Cl)ccc2c1N=C(c1ccncc1)OC2c1ccc(Br)cc1 (stereo not given)
152 to 153	CCc1nc2c(nc1O)CCCC2
85 to 88	CSC(=NCCSCc1ccccn1)NC#N
133 to 135	CN1C[C@H]2Cc3ccc(Cl)cc3[C@H](c3ccc(Cl)cc3)[C@H]2C1 (racemic)
234 to 236	Cc1n[nH]c2cc(-c3nn(C(C)c4oc5ccc(F)cc5c(=O)c4-c4cccc(F)c4)c4ncnc(N)c34)ccc12 (stereo not given)
135 to 138	N#Cc1cccc(NC(=O)C(=O)N2CCC(Cc3ccc(F)cc3)CC2)c1
221 to 223	Nc1cc2cccnc2c(-c2cccc([N+](=O)[O-])c2)n1
